Measurements reported in article PMC9898036, “VIP152 is a selective CDK9 inhibitor with pre-clinical in vitro and in vivo efficacy in chronic lymphocytic leukemia” (Leukemia, 2022).

Key:
GSK3α = GSK3α (Homo sapiens, UniProt P49840); assay: KINOMEscan: GSK3α; format: binding
Description: The structure and synthesis of VIP152 were recently described by Lücking et al.. (Fig. 1A); however, the selectivity of the molecule in cellular systems has yet to be explored. […] We also performed this experiment at 1000 nM, where CDK9 was inhibited at 99%. […] We found a strong concordance between our data and those of Lücking when comparing the most inhibited kinases. Potential off-target effects of VIP152 were next tested in vitro at a concentration of 10 µM for off-target activity against a broad range of receptors, transporters, ion channels, and enzymes (n = 138) using the Eurofins Diversity Panel.
Kinomescan Kinase Profiling Assay
Kinomescan Assay was performed at DiscoverRX and described in Fabian, et al. 2005, Nat.
Biotechnol. In brief, kinases were produced and subsequently tagged with DNA for qPCR detection.
Streptavidin-coated magnetic beads were bound to biotinylated kinase ligands to serve as a solid support.
VIP152 was dissolved in DMSO and tested across a 10 serial threefold dilution set and compared to a test compound and a DMSO control. Kinases which were inhibited by VIP152 would not be bound to the solid-support resulting in decreased substrate for the qPCR reaction. Kinome map was produced via TreeSpot Analysis from DiscoverRX. […]
NanoBRETTM Target Engagement Assay Protocol […]
HEK293 cells were grown to 70-80% confluence appropriately prior to assay and subsequently trypsinized. Lipid:DNA complexes were prepared as follows. A 10µg/mL solution of DNA in Opti-MEM without serum consisting of the following ratios of carrier DNA and DNA encoding NanoLuc fusion were prepared.
9.0µg/mL of Transfection Carrier DNA, 1.0µg/mL of NanoLuc fusion vector DNA, and 1mL of Opti-MEM without phenol red. The solution was mixed thoroughly. Next, 30µL of FuGENE HD Transfection Reagent was added into each mL of DNA mixture to form the lipid:DNA complex and mixed by inversion 10 times followed by a 20 minute incubation at room temperature. […]

Adrenergic α1B = Adrenergic α1B (Rattus norvegicus, UniProt P15823); assay: Eurofins Diversity Panel; format: binding; conditions: Conc. 10 μM
STK16 = STK16 (Homo sapiens, UniProt O75716); assay: KINOMEscan: STK16; format: binding; conditions: 100 nM, read-out: Percent Control
CAMKK1 = CAMKK1 (Homo sapiens, UniProt Q8N5S9); assay: KINOMEscan: CAMKK1; format: binding; conditions: 1000 nM, read-out: Percent Control
CDK3 = CDK3 (Homo sapiens, UniProt Q00526); assay: KINOMEscan: CDK3; format: binding; conditions: 1000 nM, read-out: Percent Control
CDKL1 = CDKL1 (Homo sapiens, UniProt Q00532); assay: KINOMEscan: CDKL1; format: binding; conditions: 1000 nM, read-out: Percent Control
CSNK1G2 = CSNK1G2 (Homo sapiens, UniProt P78368); assay: KINOMEscan: CSNK1G2; format: binding; conditions: 1000 nM, read-out: Percent Control
DCAMKL3 = DCAMKL3 (Homo sapiens, UniProt Q9C098); assay: KINOMEscan: DCAMKL3; format: binding; conditions: 1000 nM, read-out: Percent Control
EPHA1 = EPHA1 (Homo sapiens, UniProt P21709); assay: KINOMEscan: EPHA1; format: binding; conditions: 1000 nM, read-out: Percent Control
FLT3(ITD,D835V) = assay: KINOMEscan: FLT3(ITD,D835V); format: binding, human; conditions: 1000 nM
MAPKAPK2 = MAPKAPK2 (Homo sapiens, UniProt P49137); assay: KINOMEscan: MAPKAPK2; format: binding; conditions: 1000 nM, read-out: Percent Control
MARK4 = MARK4 (Homo sapiens, UniProt Q96L34); assay: KINOMEscan: MARK4; format: binding; conditions: 1000 nM, read-out: Percent Control
[1] = target: CDK9 in complex with Cyclin T1 (Homo sapiens, UniProt P50750); assay: HotSpot radiometric kinase assay; format: biochemical; design: purchased ReactionBio
Description: (§1) We next compared VIP152 to other CDK inhibitors currently in development. […] The compounds were tested in a 10-dose series from 0.5 nM to 10 µM against CDK9 in complex with Cyclin T1/T2/K, CDK7/Cyclin H, and GSK3α/β. […]
(§2) HotSpot Kinase Assay Protocol
(§3) Compounds tested via HotSpot Kinase Assay were sent to ReactionBio for the experiment. The […]
(§4) Kinase substrate was added to reaction buffer (20 mM Hepes (pH 7.5), 10 mM MgCl2, 1 mM EGTA, 0.01% Brij35, 0.02 mg/ml BSA, 0.1 mM Na3VO4, 2 mM DTT, 1% DMSO). Cofactors and kinases were gently added to the reaction buffer. Compounds to be tested were dissolved in 100% DMSO and were delivered into the kinase reaction mixture by Acoustic technology (Echo550; nanoliter range) and incubated for 20 min at room temperature. 32P-ATP was delivered into the reaction mixture and the reaction was allowed to proceed for 2 hours. Kinase activity was detected by P81 filter-binding method.

[2] = target: CDK9 in complex with Cyclin T2 (Homo sapiens, UniProt P50750); assay: HotSpot radiometric kinase assay; format: biochemical; design: purchased ReactionBio; conditions: 10-dose series from 0.5 nM to 10 µM; vs dinaciclib, KB-0742, atuveciclib
Description: as §1, §2, §3, §4

GSK3β = GSK3β (Homo sapiens, UniProt P49841); assay: HotSpot radiometric kinase assay; format: biochemical; design: purchased ReactionBio; conditions: 10-dose series from 0.5 nM to 10 µM; vs dinaciclib, KB-0742, atuveciclib
Description: as §1, §2, §3, §4

GSK3α, sequence (P49840 whole entry): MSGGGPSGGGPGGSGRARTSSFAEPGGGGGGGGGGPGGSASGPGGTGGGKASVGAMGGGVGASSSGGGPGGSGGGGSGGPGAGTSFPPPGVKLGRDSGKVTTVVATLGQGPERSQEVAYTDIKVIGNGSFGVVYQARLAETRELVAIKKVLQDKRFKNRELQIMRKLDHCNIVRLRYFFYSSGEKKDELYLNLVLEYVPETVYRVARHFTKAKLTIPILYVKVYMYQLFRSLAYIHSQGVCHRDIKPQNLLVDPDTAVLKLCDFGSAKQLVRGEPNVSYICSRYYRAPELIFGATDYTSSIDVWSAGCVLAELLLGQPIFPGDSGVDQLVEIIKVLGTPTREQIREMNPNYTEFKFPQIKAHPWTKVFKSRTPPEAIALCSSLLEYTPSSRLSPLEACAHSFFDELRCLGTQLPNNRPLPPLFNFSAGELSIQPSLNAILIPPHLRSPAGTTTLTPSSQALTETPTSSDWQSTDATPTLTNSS
CDK9 in complex with Cyclin T1, sequence (P50750 whole entry): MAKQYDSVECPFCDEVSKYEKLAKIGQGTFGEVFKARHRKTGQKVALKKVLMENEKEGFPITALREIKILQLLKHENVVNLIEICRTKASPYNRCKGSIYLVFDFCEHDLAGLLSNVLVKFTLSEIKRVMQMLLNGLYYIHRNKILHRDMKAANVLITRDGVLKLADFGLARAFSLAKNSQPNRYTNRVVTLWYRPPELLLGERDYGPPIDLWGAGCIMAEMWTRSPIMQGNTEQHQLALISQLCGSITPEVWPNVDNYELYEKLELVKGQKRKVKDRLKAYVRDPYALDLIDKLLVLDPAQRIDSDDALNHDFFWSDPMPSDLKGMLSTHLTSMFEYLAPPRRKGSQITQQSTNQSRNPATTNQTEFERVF
CDK9 in complex with Cyclin T1, sequence (O60563 whole entry partner): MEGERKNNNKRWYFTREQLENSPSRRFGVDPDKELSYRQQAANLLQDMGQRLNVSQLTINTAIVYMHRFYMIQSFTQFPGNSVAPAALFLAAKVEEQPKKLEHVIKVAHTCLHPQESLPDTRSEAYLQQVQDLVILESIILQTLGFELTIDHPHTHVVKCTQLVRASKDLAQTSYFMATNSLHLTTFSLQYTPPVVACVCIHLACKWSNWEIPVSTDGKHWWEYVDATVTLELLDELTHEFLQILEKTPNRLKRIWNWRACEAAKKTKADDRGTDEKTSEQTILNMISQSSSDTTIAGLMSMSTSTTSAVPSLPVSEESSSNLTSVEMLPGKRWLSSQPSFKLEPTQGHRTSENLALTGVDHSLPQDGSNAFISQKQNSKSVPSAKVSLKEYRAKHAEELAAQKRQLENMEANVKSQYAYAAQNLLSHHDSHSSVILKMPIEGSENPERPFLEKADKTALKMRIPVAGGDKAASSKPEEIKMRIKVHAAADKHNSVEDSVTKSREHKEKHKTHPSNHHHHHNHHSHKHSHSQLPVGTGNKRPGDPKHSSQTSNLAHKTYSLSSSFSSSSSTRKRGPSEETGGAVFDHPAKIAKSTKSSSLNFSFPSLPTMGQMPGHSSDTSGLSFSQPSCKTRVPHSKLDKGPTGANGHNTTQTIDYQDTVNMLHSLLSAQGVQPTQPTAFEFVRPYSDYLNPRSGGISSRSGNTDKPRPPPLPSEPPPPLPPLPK
EPHA1, sequence (P21709 26-976): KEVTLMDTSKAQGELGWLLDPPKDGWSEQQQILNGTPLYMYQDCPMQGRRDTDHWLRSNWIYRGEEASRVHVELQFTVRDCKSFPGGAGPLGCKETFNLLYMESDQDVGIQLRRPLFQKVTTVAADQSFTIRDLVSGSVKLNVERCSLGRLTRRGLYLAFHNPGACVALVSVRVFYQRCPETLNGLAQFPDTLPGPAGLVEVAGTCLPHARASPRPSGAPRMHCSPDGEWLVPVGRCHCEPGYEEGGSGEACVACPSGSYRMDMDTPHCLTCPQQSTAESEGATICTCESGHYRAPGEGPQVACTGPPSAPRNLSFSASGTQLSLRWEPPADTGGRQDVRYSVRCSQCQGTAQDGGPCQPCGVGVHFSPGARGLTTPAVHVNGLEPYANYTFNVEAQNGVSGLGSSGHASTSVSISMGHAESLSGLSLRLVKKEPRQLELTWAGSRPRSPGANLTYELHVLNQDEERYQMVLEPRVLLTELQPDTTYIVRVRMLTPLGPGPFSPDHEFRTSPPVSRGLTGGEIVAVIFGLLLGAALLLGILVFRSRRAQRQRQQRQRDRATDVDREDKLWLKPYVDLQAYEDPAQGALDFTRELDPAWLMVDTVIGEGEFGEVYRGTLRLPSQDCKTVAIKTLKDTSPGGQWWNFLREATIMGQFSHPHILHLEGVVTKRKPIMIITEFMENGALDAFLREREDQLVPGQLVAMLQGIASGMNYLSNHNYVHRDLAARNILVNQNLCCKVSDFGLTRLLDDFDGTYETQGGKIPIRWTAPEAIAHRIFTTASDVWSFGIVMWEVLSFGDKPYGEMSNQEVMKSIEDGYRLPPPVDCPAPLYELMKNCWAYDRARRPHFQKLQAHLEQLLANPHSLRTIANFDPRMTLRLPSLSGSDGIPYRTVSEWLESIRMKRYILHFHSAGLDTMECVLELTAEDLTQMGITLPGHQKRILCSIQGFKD
MAPKAPK2, sequence (P49137 whole entry): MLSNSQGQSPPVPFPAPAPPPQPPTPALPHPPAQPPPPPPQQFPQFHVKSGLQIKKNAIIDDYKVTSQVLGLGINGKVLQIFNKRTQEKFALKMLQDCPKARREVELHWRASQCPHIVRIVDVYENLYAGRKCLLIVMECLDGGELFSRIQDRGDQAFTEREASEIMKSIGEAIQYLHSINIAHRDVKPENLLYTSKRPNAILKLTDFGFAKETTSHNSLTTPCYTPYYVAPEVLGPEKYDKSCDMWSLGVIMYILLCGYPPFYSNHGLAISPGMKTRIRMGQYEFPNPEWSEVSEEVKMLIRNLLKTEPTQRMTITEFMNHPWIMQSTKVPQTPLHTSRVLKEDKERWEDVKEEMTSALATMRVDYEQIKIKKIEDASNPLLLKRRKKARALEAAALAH
CSNK1G2, sequence (P78368 whole entry): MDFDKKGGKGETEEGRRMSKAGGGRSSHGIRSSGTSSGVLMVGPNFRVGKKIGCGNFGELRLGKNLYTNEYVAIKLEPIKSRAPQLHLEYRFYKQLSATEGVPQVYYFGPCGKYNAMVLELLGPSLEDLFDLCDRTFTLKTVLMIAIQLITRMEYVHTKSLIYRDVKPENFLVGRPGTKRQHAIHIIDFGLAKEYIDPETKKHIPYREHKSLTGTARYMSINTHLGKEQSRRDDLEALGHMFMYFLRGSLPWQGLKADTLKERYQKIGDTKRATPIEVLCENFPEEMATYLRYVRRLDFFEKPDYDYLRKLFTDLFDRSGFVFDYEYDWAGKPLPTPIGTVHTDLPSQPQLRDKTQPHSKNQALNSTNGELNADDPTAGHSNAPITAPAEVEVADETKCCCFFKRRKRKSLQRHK
STK16, sequence (O75716 whole entry): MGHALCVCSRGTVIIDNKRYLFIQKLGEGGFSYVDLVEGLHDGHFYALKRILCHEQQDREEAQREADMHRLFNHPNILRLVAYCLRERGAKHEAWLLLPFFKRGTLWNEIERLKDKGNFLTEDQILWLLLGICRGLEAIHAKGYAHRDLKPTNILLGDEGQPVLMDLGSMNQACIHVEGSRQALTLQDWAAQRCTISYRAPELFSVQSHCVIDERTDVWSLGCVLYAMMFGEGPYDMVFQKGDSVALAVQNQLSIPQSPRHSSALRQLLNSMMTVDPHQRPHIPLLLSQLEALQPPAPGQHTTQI
CDKL1, sequence (Q00532 whole entry): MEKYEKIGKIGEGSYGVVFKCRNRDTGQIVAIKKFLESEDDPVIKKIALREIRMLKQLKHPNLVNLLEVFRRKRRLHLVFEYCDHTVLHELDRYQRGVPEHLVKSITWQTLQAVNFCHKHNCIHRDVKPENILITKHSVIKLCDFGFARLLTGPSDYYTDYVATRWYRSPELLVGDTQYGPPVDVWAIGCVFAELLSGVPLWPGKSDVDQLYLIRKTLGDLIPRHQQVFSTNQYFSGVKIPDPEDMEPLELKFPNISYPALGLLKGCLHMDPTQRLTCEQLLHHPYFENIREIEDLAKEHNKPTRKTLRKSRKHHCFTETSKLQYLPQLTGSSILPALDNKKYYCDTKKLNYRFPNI
Adrenergic α1B, sequence (P15823 whole entry): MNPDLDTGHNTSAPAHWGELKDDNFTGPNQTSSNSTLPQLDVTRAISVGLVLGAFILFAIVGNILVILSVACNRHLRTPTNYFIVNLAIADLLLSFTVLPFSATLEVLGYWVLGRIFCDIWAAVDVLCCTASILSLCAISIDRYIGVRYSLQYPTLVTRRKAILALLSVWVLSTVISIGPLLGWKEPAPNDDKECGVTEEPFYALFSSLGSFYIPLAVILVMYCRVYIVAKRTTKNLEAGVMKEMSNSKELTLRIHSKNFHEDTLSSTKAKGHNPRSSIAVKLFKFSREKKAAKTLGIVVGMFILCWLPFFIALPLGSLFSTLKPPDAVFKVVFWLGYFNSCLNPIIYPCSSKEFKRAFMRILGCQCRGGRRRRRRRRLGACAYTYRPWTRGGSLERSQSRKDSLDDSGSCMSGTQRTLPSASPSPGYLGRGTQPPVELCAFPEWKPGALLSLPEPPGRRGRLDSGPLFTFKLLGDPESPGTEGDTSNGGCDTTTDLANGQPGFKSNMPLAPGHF
GSK3β, sequence (P49841 whole entry): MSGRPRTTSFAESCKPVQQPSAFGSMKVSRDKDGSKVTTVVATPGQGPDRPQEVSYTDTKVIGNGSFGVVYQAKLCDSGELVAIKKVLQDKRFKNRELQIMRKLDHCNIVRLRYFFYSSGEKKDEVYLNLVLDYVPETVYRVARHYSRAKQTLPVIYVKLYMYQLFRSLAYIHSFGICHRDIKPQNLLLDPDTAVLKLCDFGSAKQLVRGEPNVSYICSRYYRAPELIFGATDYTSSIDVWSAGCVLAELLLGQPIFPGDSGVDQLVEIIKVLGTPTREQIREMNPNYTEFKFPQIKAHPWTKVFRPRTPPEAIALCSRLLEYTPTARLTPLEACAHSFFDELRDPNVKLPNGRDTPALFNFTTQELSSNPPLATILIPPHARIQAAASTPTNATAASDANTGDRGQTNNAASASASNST

## COc1cc(F)ccc1-c1cc(Nc2cc(CS(C)(=N)=O)ccn2)ncc1F (stereo not drawn) [VIP152]
GSK3α; 100 nM, read-out: inhibition of GSK3α relative to control
  inhibition at 0.1 µM: 97.1%
GSK3α; GSK3A, 100 nM, read-out: Percent Control
  remaining binding at 0.1 µM: 2.9%
GSK3α; GSK3A, 1000 nM, read-out: Percent Control
  remaining binding at 1 µM: 4.5%
Adrenergic α1B
  inhibition at 10 µM: 18%
STK16
  remaining binding at 0.1 µM: 100%
CAMKK1
  remaining binding at 1 µM: 13%
CDK3
  remaining binding at 1 µM: 37%
CDKL1
  remaining binding at 1 µM: 63%
CSNK1G2
  remaining binding at 1 µM: 93%
DCAMKL3
  remaining binding at 1 µM: 100%
EPHA1
  remaining binding at 1 µM: 78%
FLT3(ITD,D835V)
  Percent Control: 60%
MAPKAPK2
  remaining binding at 1 µM: 81%
MARK4
  remaining binding at 1 µM: 88%
[1]; 10-dose series from 0.5 nM to 10 µM, vs dinaciclib, KB-0742, atuveciclib
  potency versus the other inhibitors tested: higher potency
[1]; CDK9
  increase in potency compared with other inhibitors currently in development: > 10 fold
[2]
  potency versus the other inhibitors tested: higher potency
GSK3β
  potency versus the other inhibitors tested: higher potency
